In patent US6451738B1, “Substituted thienyl(Amino)-sulphonyl(thio)ureas as herbicides” (Bayer Aktiengesellschaft, priority 1996, dated 2002):

Columns and labels:
weeds [1] = experiment: Post-emergence Test; format: in vivo; settings: in words
Description: (§1) Solvent: 5 parts by weight of acetone
(§2) Emulsifier: 1 part by weight of alkylaryl polyglycol ether
(§3) To produce a suitable preparation of active compound, 1 part by weight of active compound is mixed with the stated amount of solvent, the stated amount of emulsifier is added and the concentrate is diluted with water to the desired concentration.
(§4) Test plants which have a height of 5-15 cm are sprayed with the preparation of active compound in such a way as to apply the particular amounts of active compound desired per unit area. The concentration of the spray liquor is chosen so that the particular amounts of active compound desired are applied in 1000 l of water/ha.
(§5) After three weeks, the degree of damage to the plants is rated in % damage in comparison to the development of the untreated control.
(§6) 0%=no effect (like untreated control)

Barley = experiment: Pre-emergence Test/Greenhouse; format: in vivo; settings: 4 g of ai./ha, after three weeks, 0%=no effect, 100%=total destruction
Description: as §1, §2, §3
(§7) Seeds of the test plants are sown in normal soil. After about 24 hours, the soil is sprayed with the preparation of active compound in such a way as to apply the particular amounts of active compound desired per unit area. The concentration of the spray liquor is chosen so that the particular amounts of active compound desired are applied in 1000 l of water/ha.
(§8) After three weeks, the degree of damage to the plants is rated in % damage in comparison with the development of the untreated control.
as §6

Lolium = experiment: Pre-emergence Test/Greenhouse; format: in vivo; settings: after three weeks, 0%=no effect, 100%=total destruction
Description: as §1, §2, §3, §7, §8, §6

Amaranthus [2] = experiment: Pre-emergence Test/Greenhouse; format: in vivo; settings: 504 h, after three weeks, 0%=no effect, 100%=total destruction, read-out: degree of damage, Amaranthus; for pest or weed control at 125 g/ha: 125 g of ai./ha; for pest or weed control at 60 g/ha: 60 g of ai./ha
Description: as §1, §2, §3, §7, §8, §6

Matricaria [3] = experiment: Pre-emergence Test/Greenhouse; format: in vivo; settings: after three weeks, 0%=no effect, 100%=total destruction
Description: as §1, §2, §3, §7, §8, §6

Veronica = experiment: Pre-emergence Test/Greenhouse; format: in vivo; settings: 4 g of ai./ha, after three weeks, 0%=no effect, 100%=total destruction
Description: as §1, §2, §3, §7, §8, §6

Chenopodium [4] = experiment: Pre-emergence Test/Greenhouse; format: in vivo; settings: after three weeks, 0%=no effect, 100%=total destruction
Description: as §1, §2, §3, §7, §8, §6

Alopecurus [5] = experiment: Pre-emergence Test/Greenhouse; format: in vivo; settings: 4 g of ai./ha, after three weeks, 0%=no effect, 100%=total destruction
Description: as §1, §2, §3, §7, §8, §6

Wheat = experiment: Pre-emergence Test/Greenhouse; format: in vivo; settings: after three weeks, 0%=no effect, 100%=total destruction
Description: as §1, §2, §3, §7, §8, §6

Amaranthus [6] = experiment: Post-emergence Test/Greenhouse; format: in vivo; settings: 504 h, after three weeks, 0%=no effect, 100%=total destruction, read-out: degree of damage, Amaranthus; for pest or weed control at 60 g/ha: 60 g of ai./ha
Description: as §1, §2, §3, §4, §5, §6

Xanthium = experiment: Post-emergence Test/Greenhouse; format: in vivo; settings: 60 g of ai./ha, after three weeks, 0%=no effect, 100%=total destruction
Description: as §1, §2, §3, §4, §5, §6

Matricaria [7] = experiment: Post-emergence Test/Greenhouse; format: in vivo; settings: 60 g of ai./ha, after three weeks, 0%=no effect, 100%=total destruction
Description: as §1, §2, §3, §4, §5, §6

Chenopodium [8] = experiment: Post-emergence Test/Greenhouse; format: in vivo; settings: 60 g of ai./ha, after three weeks, 0%=no effect, 100%=total destruction
Description: as §1, §2, §3, §4, §5, §6

Abutilon [9] = experiment: Post-emergence Test/Greenhouse; format: in vivo; settings: 60 g of ai./ha, after three weeks, 0%=no effect, 100%=total destruction
Description: as §1, §2, §3, §4, §5, §6

weeds [10] = experiment: Pre-emergence Test; format: in vivo; settings: in words
Description: as §1, §2, §3, §7, §8, §6

Sinapis [11] = experiment: Pre-emergence Test/Greenhouse; format: in vivo; settings: after three weeks, 0%=no effect, 100%=total destruction
Description: as §1, §2, §3, §7, §8, §6

Galium = experiment: Pre-emergence Test/Greenhouse; format: in vivo; settings: after three weeks, 0%=no effect, 100%=total destruction
Description: as §1, §2, §3, §7, §8, §6

Avena fatua = experiment: Pre-emergence Test/Greenhouse; format: in vivo; settings: 125 g of ai./ha, after three weeks, 0%=no effect, 100%=total destruction
Description: as §1, §2, §3, §7, §8, §6

Sinapis [12] = experiment: Post-emergence Test/Greenhouse; format: in vivo; settings: after three weeks, 0%=no effect, 100%=total destruction
Description: as §1, §2, §3, §4, §5, §6

Alopecurus [13] = experiment: Post-emergence Test/Greenhouse; format: in vivo; settings: after three weeks, 0%=no effect, 100%=total destruction
Description: as §1, §2, §3, §4, §5, §6

Echinochloa = experiment: Pre-emergence Test/Greenhouse; format: in vivo; settings: 60 g of ai./ha, after three weeks, 0%=no effect, 100%=total destruction
Description: as §1, §2, §3, §7, §8, §6

Abutilon [14] = experiment: Pre-emergence Test/Greenhouse; format: in vivo; settings: 60 g of ai./ha, after three weeks, 0%=no effect, 100%=total destruction
Description: as §1, §2, §3, §7, §8, §6

Setaria [15] = experiment: Pre-emergence Test/Greenhouse; format: in vivo; settings: 60 g of ai./ha, after three weeks, 0%=no effect, 100%=total destruction
Description: as §1, §2, §3, §7, §8, §6

Cyperus = experiment: Pre-emergence Test/Greenhouse; format: in vivo; settings: 60 g of ai./ha, after three weeks, 0%=no effect, 100%=total destruction
Description: as §1, §2, §3, §7, §8, §6

Setaria [16] = experiment: Post-emergence Test/Greenhouse; format: in vivo; settings: 60 g of ai./ha, after three weeks, 0%=no effect, 100%=total destruction
Description: as §1, §2, §3, §4, §5, §6

## COc1nc(C)nc(NC(=O)NS(=O)(=O)c2c(C)csc2C)n1 [Example 1, N-(4-methoxy-6-methyl-1,3,5-triazin-2-yl)-N′-(2,4-dimethyl-thien-3-yl-sulplhonyl)-urea]
Weeds [1]
  activity against weeds: strong activity
Barley
  degree of damage, Barley: 0%
Lolium; 4 g of ai./ha
  degree of damage, Lolium: 100%
Amaranthus [2]; 4 g of ai./ha
  pest or weed control at 4 g/ha: 100%
Matricaria [3]; 4 g of ai./ha
  degree of damage, Matricaria: 100%
Veronica
  degree of damage, Veronica: 100%
Chenopodium [4]; 4 g of ai./ha
  degree of damage, Chenopodium: 100%
Alopecurus [5]
  degree of damage, Alopecurus: 100%
Wheat; 4 g of ai./ha
  degree of damage, Wheat: 0%
Amaranthus [6]
  pest or weed control at 60 g/ha: 95%
Xanthium
  degree of damage, Xanthium: 100%
Matricaria [7]
  degree of damage, Matricaria: 95%
Chenopodium [8]
  degree of damage, Chenopodium: 100%
Abutilon [9]
  degree of damage, Abutilon: 95%
other
  melting point: 189 °C
Weeds [10]
  activity against weeds: very strong activity

## Cc1csc(C)c1S(=O)(=O)NC(=O)Nc1nc(OCC(F)(F)F)nc(N(C)C)n1 [Example 6]
Weeds [1]
  activity against weeds: strong activity
Amaranthus [2]
  pest or weed control at 125 g/ha: 90%
Sinapis [11]; 125 g of ai./ha
  degree of damage, Sinapis: 90%
Galium; 125 g of ai./ha
  degree of damage, Galium: 100%
Avena fatua
  degree of damage, Avena fatua: 80%
Amaranthus [6]; 125 g of ai./ha
  pest or weed control at 125 g/ha: 80%
Sinapis [12]; 125 g of ai./ha
  degree of damage, Sinapis: 100%
Alopecurus [13]; 125 g of ai./ha
  degree of damage, Alopecurus: 100%
other
  melting point: 195 °C
Weeds [10]
  activity against weeds: very strong activity

## COc1cc(OC)nc(NC(=O)NS(=O)(=O)c2c(C)csc2C)n1 [Example 7]
Weeds [1]
  activity against weeds: strong activity
Lolium; 60 g of ai./ha
  degree of damage, Lolium: 95%
Matricaria [3]; 60 g of ai./ha
  degree of damage, Matricaria: 95%
Echinochloa
  degree of damage, Echinochloa: 95%
Chenopodium [4]; 60 g of ai./ha
  degree of damage, Chenopodium: 90%
Wheat; 60 g of ai./ha
  degree of damage, Wheat: 10%
Amaranthus [6]
  pest or weed control at 60 g/ha: 95%
Xanthium
  degree of damage, Xanthium: 95%
Matricaria [7]
  degree of damage, Matricaria: 95%
Chenopodium [8]
  degree of damage, Chenopodium: 95%
Abutilon [9]
  degree of damage, Abutilon: 95%
other
  melting point: 198 °C
Weeds [10]
  activity against weeds: very strong activity

## Cc1csc(C)c1S(=O)(=O)NC(=O)Nc1nc(Oc2ccccc2)nc(N(C)C)n1 [Example 8]
Amaranthus [2]
  pest or weed control at 125 g/ha: 80%
Sinapis [11]; 125 g of ai./ha
  degree of damage, Sinapis: 80%
Galium; 125 g of ai./ha
  degree of damage, Galium: 90%
Avena fatua
  degree of damage, Avena fatua: 80%
other
  melting point: 173 °C
Weeds [10]
  activity against weeds: very strong activity

## COc1nc(NC(=O)NS(=O)(=O)c2c(C)csc2C)nc(OC)n1 [Example 9]
Weeds [1]
  activity against weeds: strong activity
Amaranthus [2]
  pest or weed control at 60 g/ha: 90%
Sinapis [11]; 60 g of ai./ha
  degree of damage, Sinapis: 90%
Abutilon [14]
  degree of damage, Abutilon: 90%
Amaranthus [6]
  pest or weed control at 60 g/ha: 100%
Sinapis [12]; 60 g of ai./ha
  degree of damage, Sinapis: 95%
Abutilon [9]
  degree of damage, Abutilon: 80%
other
  melting point: 168 °C
Weeds [10]
  activity against weeds: very strong activity

## COc1nc(NC(=O)NS(=O)(=O)c2c(C)csc2C)nc(C2CC2)n1 [Example 10]
Amaranthus [2]
  pest or weed control at 60 g/ha: 80%
Galium; 60 g of ai./ha
  degree of damage, Galium: 100%
Setaria [15]
  degree of damage, Setaria: 80%
other
  melting point: 180 °C
Weeds [10]
  activity against weeds: very strong activity

## CSc1nc(C)nc(NC(=O)NS(=O)(=O)c2c(C)csc2C)n1 [Example 11]
Weeds [1]
  activity against weeds: strong activity
Amaranthus [6]
  pest or weed control at 60 g/ha: 100%
Sinapis [12]; 60 g of ai./ha
  degree of damage, Sinapis: 100%
other
  melting point: 220 °C

## CCc1nc(NC(=O)NS(=O)(=O)c2c(C)csc2C)nc(OC)n1 [Example 13]
Weeds [1]
  activity against weeds: strong activity
Amaranthus [6]
  pest or weed control at 60 g/ha: 100%
Sinapis [12]; 60 g of ai./ha
  degree of damage, Sinapis: 95%
Abutilon [9]
  degree of damage, Abutilon: 90%
other
  melting point: 161 °C

## Cc1cc(C)nc(NC(=O)NS(=O)(=O)c2c(C)csc2C)n1 [Example 14]
Weeds [1]
  activity against weeds: strong activity
Amaranthus [2]
  pest or weed control at 60 g/ha: 90%
Sinapis [11]; 60 g of ai./ha
  degree of damage, Sinapis: 90%
Cyperus
  degree of damage, Cyperus: 100%
Amaranthus [6]
  pest or weed control at 60 g/ha: 100%
Sinapis [12]; 60 g of ai./ha
  degree of damage, Sinapis: 100%
Alopecurus [13]; 60 g of ai./ha
  degree of damage, Alopecurus: 80%
other
  melting point: 240 °C
Weeds [10]
  activity against weeds: very strong activity

## COc1cc(C)nc(NC(=O)NS(=O)(=O)c2c(C)csc2C)n1 [Example 15]
Weeds [1]
  activity against weeds: strong activity
Amaranthus [2]
  pest or weed control at 60 g/ha: 90%
Sinapis [11]; 60 g of ai./ha
  degree of damage, Sinapis: 100%
Abutilon [14]
  degree of damage, Abutilon: 100%
Amaranthus [6]
  pest or weed control at 60 g/ha: 100%
Sinapis [12]; 60 g of ai./ha
  degree of damage, Sinapis: 100%
Abutilon [9]
  degree of damage, Abutilon: 90%
Setaria [16]
  degree of damage, Setaria: 90%
other
  melting point: 140 °C
Weeds [10]
  activity against weeds: very strong activity

## COc1cc(Cl)nc(NC(=O)NS(=O)(=O)c2c(C)csc2C)n1 [Example 16]
Weeds [1]
  activity against weeds: strong activity
Amaranthus [2]
  pest or weed control at 60 g/ha: 95%
Sinapis [11]; 60 g of ai./ha
  degree of damage, Sinapis: 95%
Cyperus
  degree of damage, Cyperus: 80%
Amaranthus [6]
  pest or weed control at 60 g/ha: 100%
Sinapis [12]; 60 g of ai./ha
  degree of damage, Sinapis: 95%
other
  melting point: 219 °C
Weeds [10]
  activity against weeds: very strong activity
